Our source for the inhibition and IC50 values is US12187716B2, “TYK2 kinase inhibitors” (SAREUM LIMITED, priority 2018, dated 2025).

Where two headings read alike, the source gives them in different places. Some results are limits rather than exact numbers.

The subject of assay [1] is pSTAT3 in HT29 cells. Put plainly: pSTAT3 inhibition in response to IL-22 stimulation in serum starved HT29 cells. In kind it is cell-based. The note with it: for inhibition at 10 µM: HT-29, HT29 cells, 10 ng/ml human IL-22, 10 μM compound; for IC50: Homo sapiens, HT-29, HT29 cells, 10 ng/ml human IL-22. Here is the method:
HT29 cells were serum starved overnight before the four test compounds were diluted to generate a 9-point semi-log dose dilution with a top concentration of 10 μM, plus vehicle control. HT29 cells were incubated with the test compounds for 20 min at 37° C. HT29 cells were incubated for a further 15 min with 10 ng/ml human IL-22 before cells were fixed with 4% PFA for 10 min, and 90% methanol for 30 min before being labelled with a phospho-STAT3Y705 antibody (CST #9145). Cells were rinsed three times using 0.5% BSA/PBS solution before being incubated with Alexa-488 anti-rabbit secondary antibodies.
Mean fluorescence intensity of phospho-STAT3 in single cells was analysed by flow cytometry using an Intellicyt iQue instrument and FlowJo software. The IC50 was determined using a four-parameter analysis following removal of background signal and normalisation to the DMSO control.

In assay [2] the target is T1, CYP1A2 (Homo sapiens, UniProt P05177).
T1 sequence (P05177 1-516): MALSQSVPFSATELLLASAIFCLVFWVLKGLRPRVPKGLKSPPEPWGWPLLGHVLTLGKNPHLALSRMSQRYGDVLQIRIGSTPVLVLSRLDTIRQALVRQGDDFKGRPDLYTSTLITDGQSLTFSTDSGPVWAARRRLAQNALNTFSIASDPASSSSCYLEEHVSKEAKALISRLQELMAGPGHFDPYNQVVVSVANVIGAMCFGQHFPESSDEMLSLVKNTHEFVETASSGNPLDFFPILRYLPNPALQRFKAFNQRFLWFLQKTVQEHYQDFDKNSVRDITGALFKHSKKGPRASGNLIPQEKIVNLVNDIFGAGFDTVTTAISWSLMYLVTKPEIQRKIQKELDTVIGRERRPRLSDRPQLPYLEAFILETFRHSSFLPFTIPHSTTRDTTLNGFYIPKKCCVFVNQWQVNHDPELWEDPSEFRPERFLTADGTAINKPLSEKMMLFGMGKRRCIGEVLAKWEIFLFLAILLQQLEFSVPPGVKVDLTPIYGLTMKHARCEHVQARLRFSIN
The experiment in a line: Cytochrome P450 inhibition assay, CYP1A2. In kind it is in vitro ADME. The note with it: pooled human liver microsomes, probe Phenacetin. Here is the method:
(§1) The susceptibility of Compounds (2) and (3) to potential drug-drug interactions was tested by assaying their abilities to inhibit various cytochrome P450 isoforms. Prior art Compound B (see Example 3 above) was also tested as a comparative example. Test compounds, prepared and serially diluted in DMSO, were incubated at six concentrations (1% DMSO final) with pooled human liver microsomes in the presence of probe substrate for each isoform, and their effects on the metabolism of probe substrates determined. Incubations (in 96-well plates) were carried out at 37° C. in 0.1 M Tris buffer, pH 7.4, with reactions initiated by the addition of cofactor, NADPH (1 mM final concentration). At the specified times, reactions were terminated with acetonitrile containing an analytical internal standard, samples were centrifuged and the supernatant fractions were analysed for probe substrate metabolites by mass spectrometry (LC-MS/MS). The instrument responses were normalised to internal standard and compared to the appropriate solvent controls to determine the amount of metabolite formed from the probe substrates relative to these “uninhibited” controls. […] [table]
(Liver microsomes are vesicles of endoplasmic reticulum, rich in cytochrome P450 enzymes.)

Assay [3] deals with T2, CYP3A4 (Homo sapiens, UniProt P08684).
T2 construct: from tissue; host or cells: pooled human liver microsomes
Put plainly: Cytochrome P450 inhibition assay, CYP3A4. The conditions noted are these: pooled human liver microsomes. In kind it is in vitro ADME. Here is the method: as §1

Assay [4] deals with T3, CYP2B6 (Homo sapiens, UniProt P20813).
T3 construct: from tissue; host or cells: pooled human liver microsomes
T3 sequence (P20813 1-491): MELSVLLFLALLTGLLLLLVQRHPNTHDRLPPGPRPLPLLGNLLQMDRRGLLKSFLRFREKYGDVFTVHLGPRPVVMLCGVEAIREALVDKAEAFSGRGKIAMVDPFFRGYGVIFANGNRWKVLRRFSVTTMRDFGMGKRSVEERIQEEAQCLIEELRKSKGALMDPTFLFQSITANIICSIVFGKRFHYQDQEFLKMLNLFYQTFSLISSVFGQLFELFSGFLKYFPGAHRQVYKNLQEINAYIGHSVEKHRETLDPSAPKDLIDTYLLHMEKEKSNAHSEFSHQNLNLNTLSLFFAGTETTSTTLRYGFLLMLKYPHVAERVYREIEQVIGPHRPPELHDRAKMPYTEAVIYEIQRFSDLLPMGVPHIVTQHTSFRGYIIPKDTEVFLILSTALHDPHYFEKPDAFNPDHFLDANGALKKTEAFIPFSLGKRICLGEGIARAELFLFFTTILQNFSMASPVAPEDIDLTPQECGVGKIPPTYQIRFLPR
The experiment in a line: Cytochrome P450 inhibition assay, CYP2B6. In kind it is in vitro ADME. The conditions noted are these: pooled human liver microsomes, probe Bupropion. How it is done:
as §1

Assay [5] concerns IL-17F production in Th17 cells. The experiment in a line: IL-17F production inhibition in Th17 cells derived from human peripheral blood CD4CD45RO+ cells. In kind it is cell-based. How it is done:
Fresh human Peripheral blood CD4CD45RO+ cells were purchased commercially (Generon, UK); 3 separate vials from 3 different volunteers for experimental replicates. Cells were grown in T-cell medium (Thermo Fisher) containing 10 ng/ml recombinant human IL-1B (R&D Systems), IL-23 (R&D Systems), TGF-B1 (R&D Systems) and 50 ng/ml IL-6 (R&D Systems) together with anti-CD3/CD28 magnetic Dynabeads (Thermo Fisher). These were grown for 11 days to induce expansion of Th17 cells. Prior to plating for assays cells were grown overnight in T-cell medium supplemented with human serum (1%) overnight. Media was removed and replaced with unsupplemented RPMI for 4 h prior to assay.
To measure IL-17F levels, 200,000 cells were plated into a 96 well plate and preincubated with compounds for 30 minutes followed by stimulation with recombinant IL-23 at 6.25 ng/ml and recombinant human IL-1B at 0.1 ng/ml for 48 h. Supernatants were removed and IL-17F levels measured using a commercially available ELISA kit (Thermo Fisher; BMS2037-2).
ELISAs were carried out according to manufacturers instructions and absorbance read using a microplate reader (Thermo Fisher; Varioskan). Data was normalised to the response in untreated samples using the formula: % of control=((Stimulated sample Conc.−unstimulated sample Conc.)×100)/(Control stimulated Conc.−control unstimulated Conc.)
Graphpad Prism 8.1.0 was used to calculate I050 values using a Nonlinear 4 parameter logistic regression model (4PL).

Setting [6] is: probe Midazolam, read-out: CYP3A4 (MID) IC50.
Where [7] appears, read: probe Testosterone, read-out: CYP3A4 (Test) IC50.
Setting [8] is: IL-23 6.25 ng/ml + IL-1B 0.1 ng/ml, 48 h, Donor 1, read-out: IL17-F Production Inhibition IC50, Donor 1.
The mark [9] stands for this setting: IL-23 6.25 ng/ml + IL-1B 0.1 ng/ml, 48 h, Donor 2, read-out: IL17-F Production Inhibition IC50, Donor 2.
[10] abbreviates: IL-23 6.25 ng/ml + IL-1B 0.1 ng/ml, 48 h, Donor 3, read-out: IL17-F Production Inhibition IC50, Donor 3.
[11] abbreviates: average of 3 donors, read-out: IL17-F Production Inhibition IC50, Average.

T2 sequence (P08684 whole entry): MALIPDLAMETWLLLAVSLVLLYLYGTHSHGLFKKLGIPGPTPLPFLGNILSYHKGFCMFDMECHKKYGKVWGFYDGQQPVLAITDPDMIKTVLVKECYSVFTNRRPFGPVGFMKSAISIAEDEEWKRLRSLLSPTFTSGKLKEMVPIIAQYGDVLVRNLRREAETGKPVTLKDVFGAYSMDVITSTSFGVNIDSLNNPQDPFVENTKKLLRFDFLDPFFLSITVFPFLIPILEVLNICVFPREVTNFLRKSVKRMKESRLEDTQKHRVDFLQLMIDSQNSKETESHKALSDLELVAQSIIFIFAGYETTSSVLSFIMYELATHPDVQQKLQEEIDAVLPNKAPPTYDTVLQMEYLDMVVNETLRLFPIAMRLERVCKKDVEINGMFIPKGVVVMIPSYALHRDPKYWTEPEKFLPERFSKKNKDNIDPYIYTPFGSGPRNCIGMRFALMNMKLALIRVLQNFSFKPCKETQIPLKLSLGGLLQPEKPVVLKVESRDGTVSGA

Compound `NC(=O)c1nc(-c2c(Cl)cccc2Cl)oc1Nc1ccc(C(=O)N2CCOCC2)cc1` [Comparative Compound B, 2-(2,6-dichloro-phenyl)-5-[4-(morpholine-4-carbonyl)-phenylamino]-oxazole-4-carboxylic acid amide, reference compound] gave an inhibition at 10 µM in assay [1] of 97.9%. The IC50 in assay [1] was less than 100 nM; in assay [2], more than 30000 nM; in assay [3] (setting [6]) it was more than 30000 nM; in assay [3] (setting [7]), more than 30000 nM; in assay [4], more than 30000 nM; in assay [5] (setting [8]), 243 nM. Further, the IC50 in assay [5] (setting [9]) is 217 nM; in assay [5] (setting [10]), 148 nM; in assay [5] (setting [11]) it was 203 nM.
`NC(=O)c1nc(-c2c(Cl)cccc2Cl)oc1Nc1ccc(C(=O)N2CCS(=O)(=O)CC2)c(F)c1` [Compound (3)]: in assay [1], the inhibition at 10 µM was 95.9%. The IC50 in assay [1] was 231 nM; in assay [2] it was more than 30000 nM; in assay [3] (setting [6]) it was more than 30000 nM; in assay [3] (setting [7]), more than 30000 nM; in assay [4] it was more than 30000 nM; in assay [5] (setting [8]) it was 57 nM. In addition, the IC50 was determined as 548 nM in assay [5] (setting [9]), 105 nM in assay [5] (setting [10]) and 237 nM in assay [5] (setting [11]).
Consider `NC(=O)c1nc(-c2c(Cl)cccc2Cl)oc1Nc1ccc(C(=O)N2CCS(=O)(=O)CC2)cc1` [Compound (2)], for which, in assay [1], at 10 µM the inhibition was 95.9%. Further, the IC50 is more than 30000 nM in assay [2]; more than 30000 nM in assay [3] (setting [6]); more than 30000 nM in assay [3] (setting [7]); more than 30000 nM in assay [4]; 117 nM in assay [5] (setting [8]); 134 nM in assay [5] (setting [9]). Further, the IC50 in assay [5] (setting [10]) is 64 nM; in assay [5] (setting [11]), 105 nM.

The inhibition is the percentage by which the read-out fell short of the control. A higher inhibition goes with strong suppression. One may read the IC50 as the concentration that gives 50% inhibition.
